# Results: paper PMC8119466, “A screen of FDA-approved drugs identifies inhibitors of protein tyrosine phosphatase 4A3 (PTP4A3 or PRL-3)” (Scientific Reports, 2021)
# What was measured:
# Format in all cases: biochemical
# Settings in all cases: FDA-approved drug screen
# recombinant PRL-1 = target: T1, recombinant PRL-1 (Homo sapiens, UniProt Q93096); experiment: In vitro phosphatase assay (DiFMUP hydrolysis), PRL-1; note: test concentration or dose not given here
# T1 construct: 6xHis (N, cleaved yes); made in house; host or cells: E. coli One Shot BL21 Star
# T1 sequence (Q93096 1-173): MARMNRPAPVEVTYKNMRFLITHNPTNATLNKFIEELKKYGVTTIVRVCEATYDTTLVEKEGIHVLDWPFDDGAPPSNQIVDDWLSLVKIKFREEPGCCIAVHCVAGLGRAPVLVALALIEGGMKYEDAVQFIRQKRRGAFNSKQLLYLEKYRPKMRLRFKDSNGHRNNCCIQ
# recombinant PRL-2 = target: T2, recombinant PRL-2 (Homo sapiens, UniProt Q12974); experiment: In vitro phosphatase assay (DiFMUP hydrolysis), PRL-2;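 note: PRL-2 activity read as DiFMUP hydrolysis after 20 min at room temperature with drug, enzyme first pre-reduced at 4 °C for 20 min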
# T2 construct: 6xHis (N, cleaved yes); made in house; host or cells: E. coli One Shot BL21 Star
# T2 sequence (Q12974 1-167): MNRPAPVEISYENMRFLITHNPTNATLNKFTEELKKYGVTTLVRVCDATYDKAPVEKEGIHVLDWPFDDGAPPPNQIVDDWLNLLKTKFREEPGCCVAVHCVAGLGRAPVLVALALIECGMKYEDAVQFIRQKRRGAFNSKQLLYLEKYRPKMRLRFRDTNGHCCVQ
# recombinant PRL-3 = target: T3, recombinant PRL-3 (Homo sapiens, UniProt O75365); experiment: In vitro phosphatase assay (DiFMUP hydrolysis), PRL-3; note: test concentration or dose not given here
# T3 construct: 6xHis (N, cleaved yes); made in house; host or cells: E. coli One Shot BL21 Star
# T3 sequence (O75365 whole entry): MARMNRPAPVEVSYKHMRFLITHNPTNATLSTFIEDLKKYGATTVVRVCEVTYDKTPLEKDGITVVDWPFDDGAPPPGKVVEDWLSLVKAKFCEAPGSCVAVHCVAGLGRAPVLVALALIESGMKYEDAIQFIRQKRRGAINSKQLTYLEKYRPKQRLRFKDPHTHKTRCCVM
% Phosphatase Activity (compared to DMSO) PRL-1 (recombinant PRL-1; activity compared to DMSO),% Phosphatase Activity (compared to DMSO) PRL-2 (recombinant PRL-2; activity compared to DMSO),% Phosphatase Activity (compared to DMSO) PRL-3 (recombinant PRL-3; activity compared to DMSO),SMILES,% Phosphatase Activity (compared to DMSO) PRL-1 (recombinant PRL-1; compared to DMSO),% Phosphatase Activity (compared to DMSO) PRL-2 (recombinant PRL-2; compared to DMSO),% Phosphatase Activity (compared to DMSO) PRL-3 (recombinant PRL-3; compared to DMSO)
,,,C[N+](C)(C)CC(O)CC(=O)O.[Cl-] (racemic) [DL-Carnitine HCl],100%,94%,85%
,,,CCCCCCCCc1ccc(CCC(N)(CO)CO)cc1.Cl [Fingolimod (FTY720) HCl],104%,95%,116%
,,,Cc1nnc(C(=O)NC(C)(C)c2nc(C(=O)NCc3ccc(F)cc3)c(O)c(=O)n2C)o1 [Raltegravir (MK-0518)],96%,105%,90%
,,,CN1CCN(c2c(F)cc3c(=O)c(C(=O)O)cn4c3c2OCN4C)CC1 [Marbofloxacin],345%,386%,180%
,,,C[C@]12C=CC(=O)N[C@@H]1CC[C@@H]1[C@@H]2CC[C@]2(C)[C@@H](C(=O)Nc3cc(C(F)(F)F)ccc3C(F)(F)F)CC[C@@H]12 [Dutasteride],94%,88%,82%
85%,97%,85%,O=C(O)CCC(=O)Nc1ccc(S(=O)(=O)Nc2nccs2)cc1 [Succinylsulfathiazole],,,
,,,CO[C@H]1C(=O)[C@]2(C)[C@@H](OC)C[C@H]3OC[C@@]3(OC(C)=O)[C@H]2[C@H](OC(=O)c2ccccc2)[C@]2(O)C[C@H](OC(=O)[C@H](O)[C@@H](NC(=O)OC(C)(C)C)c3ccccc3)C(C)=C1C2(C)C [Cabazitaxel],88%,107%,89%
,,,CN1CCN(CCOc2cc(OC3CCOCC3)c3c(Nc4c(Cl)ccc5c4OCO5)ncnc3c2)CC1 [Saracatinib (AZD0530)],99%,98%,79%
,,,COc1ccc(C2CNC(=O)C2)cc1OC1CCCC1 (stereo not drawn) [Rolipram],99%,104%,77%
,,,Cc1cn[nH]c1 [Fomepizole],102%,102%,78%
,,,CC(=O)/N=c1/sc(S(N)(=O)=O)nn1C [Methazolamide],110%,114%,88%
,,,CCN1CCN(C(=O)N[C@@H](C(=O)N[C@@H]2C(=O)N3[C@@H]2SC(C)(C)[C@@H]3C(=O)O)c2ccccc2)C(=O)C1=O [Piperacillin Sodium],86%,91%,73%
,,,CN(C)C/C=C/C(=O)Nc1cc2c(Nc3ccc(F)c(Cl)c3)ncnc2cc1O[C@H]1CCOC1.O=C(O)/C=C\C(=O)O.O=C(O)/C=C\C(=O)O [Afatinib (BIBW2992) Dimaleate],97%,94%,101%
,,,COc1cc2c(Oc3ccc4[nH]c(C)cc4c3F)ncnc2cc1OCCCN1CCCC1 [Cediranib (AZD2171)],100%,105%,90%
,,,C[C@]12CC[C@@H]3c4ccc(O)cc4CC[C@H]3[C@@H]1CC[C@@H]2O [Estradiol],92%,113%,84%
,,,Cc1oncc1C(=O)Nc1ccc(C(F)(F)F)cc1 [Leflunomide],88%,80%,67%
